This is an account of results in patent US7572872B2, “Biomimetic materials comprising polyhedral oligomeric silsesquioxanes” (priority 2005, dated 2009).

In one data set the test system is osteoblasts. Nature of the data set: Osteoblast adhesion on POSS-coated titanium. In kind it is cell-based. The following applies: from Table 2 findings. The protocol:
(§1) [(RSiO1.5)4(Rl(OH)SiO1.0)3]Σ7 (1 g) was dissolved in dichlormethane and sprayed onto metallic titanium samples. The samples were then dried at 110° C. for 2 hours.
(§2) Experimental samples with 50% surface coverage of POSS were exposed to osteoblasts and fibroblasts cultured in Dulbecco's modified eagle medium (DMEM), supplemented with 10% fetal bovine serum (FBS) and 1% penicillin streptomycin (P/S), under standard cell culture conditions (sterile chamber maintained at 37° C. and a humidified environment: 5% CO2/95% air). The stock solutions were supplied by HyClone.
(§3) For this purpose, osteoblasts, and fibroblasts were separately seeded (10,000 cells cm^2) onto the experimental titanium substrate, and were allowed to adhere in standard cell culture conditions for 48 hours. After the prescribed time period, substrates were rinsed three times using phosphate-buffered saline (PBS) to remove non-adherent cells. The adhered cells were fixed with formaldehyde (Fisher), stained with Hoechst 33 258 dye (Sigma), and counted using fluorescence microscopy (365 nm excitation and 400 nm emission wavelengths). The findings in Table 2 indicate a clear differentiation in binding a cellular modulation relative to the type of R group present on the cage.
(§4) All experiments were run in triplicate, and repeated three different times.

The test system of the next data set is bone. Nature of the data set: Bone formation in vitro (OsteoPOSS). The conditions noted are these: FIG. 6. It is filed as cell-based.
The subject of a further data set is rat calvaria bone defect. Put plainly: POSS-bone samples implanted in vivo into rat calvaria as a bone defect. The conditions noted are these: eight POSS-bone samples 5 mm in length; examined after one month.
Data set [1] relates to cuts through the endermal skin layer. Put plainly: FibroPOSS treatment of cuts in a human arm. It is filed as in vivo. The protocol:
Based upon the differentiation from Example 1, a series of in vivo FibroPOSS examinations was made using [(isoOctylSiO1.5)4(isoOctyl(OH)SiO1.0)3]Σ7 and [([…])8]Σ8. In a human arm a series of six cuts were made through the endermal skin layer.
The top two cuts were treated with 100% [(isoOctylSiO1.5)4(isoOctyl(OH)SiO1.0)3]Σ7(SO1455) and [(isoOctylSiO1.5)8]Σ8 (MS0805).
The middle two cuts had 50/50 SO1450+bactin antibiotic and 50/50 MS0805+bactin antibiotic.
The bottom left cuts had 100% bactin antibiotic and the bottom right cut had no treatment.

The nature of data set [2]: Dispersion of POSS compounds in personal care and cosmetic products. The following applies: approximately 5% POSS by weight. It is filed as physicochemical. The procedure:
In light of the observed cellular differentiation and modulation promoted by nanostructured chemicals, a series of POSS, POS and POMS were added to conventional personal care and cosmetic products. […] A summary of the products and finding is listed below.
Each sample prepared consisted of approximately 5% of POSS by weight and was inspected visually and by biometric techniques for the dispersion of the POSS compound. The products in which the POSS compounds could be dispersed without being felt are listed under the POSS compounds studied.

Another data set relates to fibroblasts. Nature of the data set: Fibroblast adhesion on POSS-coated titanium. In kind it is cell-based. The conditions noted are these: from Table 2 findings. The protocol:
as §1, §2, §3, §4

`O[Si]1(c2ccccc2)O[Si]2(c3ccccc3)O[Si](O)(c3ccccc3)O[Si]3(c4ccccc4)O[Si](O)(c4ccccc4)O[Si](c4ccccc4)(O1)O[Si](c1ccccc1)(O2)O3` (stereo not shown) [[(phenylSiO1.5)4(phenyl(OH)SiO1.0)3]Σ7]: the “Osteoblast binding preference by R group on the cage” value in the data set on osteoblasts is reported as “osteoblast exhibited a preference”. Further, the “Bone formation in vitro” value in the data set on bone is “form bone in vitro”. Moreover, the “Appearance of bone implantation site” value in the data set with rat calvaria bone defect is “indistinguishable from normal rat bone”.
On to “[(isoOctylSiO1.5)4(isoOctyl(OH)SiO1.0)3]Σ7 [SO1455]”, for which the “Bleeding of cut after treatment” value in data set [1] is “did not show any bleeding”. Also, the “Clotting of cut after treatment” value in data set [1] is reported as “nor was visible clotting observed”. Moreover, the “Observation on product after POSS addition” value in data set [2] (Dial Antibacterial Hand Soap) is recorded as “remained clear”; in data set [2] (Isoplus Styling Gel), “became thicker”; in data set [2] (Ivory Hand Soap) it was “remained clear”; in data set [2] (Right Guard Deodorant), “became thicker”; in data set [2] (Suave Shampoo) it was “remained clear”. Further, in the data set with fibroblasts, the “Fibroblast binding preference by R group on the cage” value was “fibroplasts preferred”.
For the compound [(isoOctylSiO1.5)8]Σ8 [MS0805], in data set [1], the “Bleeding of cut after treatment” value is “did not show any bleeding” and the “Clotting of cut after treatment” value is “nor was visible clotting observed”.
